Results taken from patent US20240252456A1, “ORAL COMPOSITION, SKIN COSMETIC AND HAIR COSMETIC” (MARUZEN PHARMACEUTICALS CO., LTD., priority 2021, published 2024).

How the values were obtained:
[1] = system: Normal human neonatal epidermal keratinocytes (NHEK); assay: Epidermal keratinocyte proliferation promotive action test (MTT); format: cell-based; settings: 3 days, A/B×100 vs no sample
Procedure: Normal human neonatal epidermal keratinocytes (NHEK) were cultured using normal human epidermal keratinocyte growth medium (KGM), and then the cells were collected by a trypsin treatment. The collected cells were diluted with KGM to a cell density of 3.0×10^4 cells/mL, then seeded with 100 μL per well on a collagen-coated 96-well plate, and cultured overnight. After the culturing was completed, 100 μL of the test sample (Sample 1, see Table 12 below for the final concentration) dissolved in KGM was added to each well, and culturing was performed for 3 days. As a control, culturing was performed in the same manner using KGM to which no sample was added.
The epidermal keratinocyte proliferation promotive action was measured using the MTT assay method. After culturing for 3 days, the medium was removed, and 100 μL of MTT dissolved at a final concentration of 0.4 mg/mL in PBS(−) buffer solution was added to each well. […] After extraction, the absorbance at a wavelength of 570 nm was measured. At the same time, the absorbance at a wavelength of 650 nm was measured as turbidity, and the difference between the two was determined as the production amount of blue formazan. From the obtained results, the epidermal keratinocyte proliferation promotion rate (%) was calculated using the following equation. […]

tyrosinase = assay: Tyrosinase activity inhibitory action test; format: biochemical
Procedure: In a 48-well plate, 0.2 mL of McIlvaine buffer solution (pH 6.8), 0.06 mL of 0.3 mg/mL tyrosine solution, and 0.18 mL of the test sample (Sample 3, see Table 4 below for final concentration) dissolved in 25% DMSO solution were added, and they were statically placed at 37° C. for 10 minutes. To this, 0.02 mL of 1000 units/mL tyrosinase solution was added, followed by reaction at 37° C. for 15 minutes. After the reaction was completed, the absorbance at a wavelength of 475 nm was measured. As a blank, the same operation and absorbance measurement were performed in the case in which no enzyme solution was added. Furthermore, as a control, the same measurement was performed in the case in which 25% DMSO solution was added without adding the sample solution. From the obtained measurement results, the tyrosinase activity inhibition rate (%) was calculated using the following equation. [formula] Terms in the equation represent the following respective ones. • A: Absorbance at wavelength 475 nm with test sample addition and enzyme addition • B: Absorbance at wavelength 475 nm with test sample addition and without enzyme addition • C: Absorbance at wavelength 475 nm without sample addition and with enzyme addition • D: Absorbance at wavelength 475 nm without sample addition and without enzyme addition

| Compound | Epidermal keratinocyte proliferation promotion rate ([1]; 25 μmol/L) | Epidermal keratinocyte proliferation promotion rate ([1]; 100 μmol/L) | Tyrosinase activity inhibition rate (tyrosinase; 125 μmol/L) | Tyrosinase activity inhibition rate (tyrosinase; 250 μmol/L) | Tyrosinase activity inhibition rate (tyrosinase; 500 μmol/L) | Tyrosinase activity inhibition rate (tyrosinase; 1000 μmol/L) |
| --- | --- | --- | --- | --- | --- | --- |
| O=C(O)CCc1ccc(O)c(O)c1 [Sample 1, 3,4-Dihydroxyhydrocinnamic acid] | 138.3% | 152.1% | – | – | – | – |
| O=C(O)CCc1ccccc1 [Sample 3, 3-phenylpropionic acid] | – | – | 4.4% | 9.6% | 15.2% | 22.8% |
